Structures can show the parent of a compound that is named as a salt.

`Cc1ccccc1C1(CN)C2CC3CC(C2)CC1C3` (stereo not shown) (as salt: hydrochloride) registered a melting point of 270 to 271 °C.
Turning to `CCc1cccc(C2(CN)C3CC4CC(C3)CC2C4)c1` (stereo not shown) (as salt: hydrochloride) [Example 1, 2-(3-Ethylphenyl)-2-adamantanemethanamine hydrochloride], the melting point lay within 89 to 90 °C.
Regarding `Cc1cccc(C2(CN)C3CC4CC(C3)CC2C4)c1` (stereo not shown) (as salt: hydrochloride) [Example 2, 2-(3-Methylphenyl)-2-adamantanemethanamine hydrochloride], the melting point was in the range of 242 to 243 °C.
Under `NCC1(c2ccccc2)C2CC3CC(C2)CC1C3` (stereo not shown) (as salt: hydrochloride) [Example 3, 2-Phenyl-2-adamantanemethanamine hydrochloride] stands 253 to 255 °C; under `Cc1ccc(C2(CN)C3CC4CC(C3)CC2C4)cc1` (stereo not shown) (as salt: hydrochloride) [Example 4, 2-(4-Methylphenyl)-2-adamantanemethanamine hydrochloride], 261 to 263 °C; under `NCC1(c2ccc(F)cc2)C2CC3CC(C2)CC1C3` (stereo not shown) (as salt: hydrochloride) [Example 6, 2-(4-Fluorophenyl)-2-adamantanemethanamine hydrochloride], 262 to 263 °C.
`NCC1(c2ccc(Cl)cc2)C2CC3CC(C2)CC1C3` (stereo not shown) (as salt: hydrochloride) [Example 7, 2-(4-Chlorophenyl)-2-adamantanemethanamine hydrochloride] came in with a melting point of over 300 °C.
Consider `COc1ccc(C2(CN)C3CC4CC(C3)CC2C4)cc1` (stereo not shown) (as salt: hydrochloride) [Example 8, 2-(4-Methoxyphenyl)-2-adamantanemethanamine hydrochloride], for which the melting point lay within 234 to 235 °C.
`NCC1(c2ccc(C(F)(F)F)cc2)C2CC3CC(C2)CC1C3` (stereo not shown) (as salt: hydrochloride) [Example 9, 2-(4-Trifluoromethylphenyl)-2-adamantanemethanamine hydrochloride] had a melting point of 279 to 281 °C.
The compound `NCC1(c2cccs2)C2CC3CC(C2)CC1C3` (stereo not shown) (as salt: hydrochloride) [Example 10, 2-(2-Thienyl)-2-adamantanemethanamine hydrochloride] yielded a melting point of 255 to 257 °C.

By melting point is commonly meant the temperature of the solid-liquid transition.

Values taken from patent publication US6531511B1, “2-adamantanemethanamine compounds for treating abnormalities in glutamatergic transmission” (Vernalis Research Limited, priority 1999, dated 2003).
